{
  "source": "patent US20250275946A1",
  "about": "“COMBINATION THERAPY FOR THE TREATMENT OF CANCER” (UNM RAINFOREST INNOVATIONS, priority 2021, published 2025)",
  "key": {"[1]": {"tested_on": "HCT116, SW480 or RKO cancer cells", "experiment": "Immunoblotting analysis in human colon-derived cancer cells", "assay_type": "cell-based", "procedure": "(§1) Human HCT116, RKO, SW480, HEK293T and murine MC38 CRC cells were maintained at 37° C. in 5% CO2 and cultured in Dulbecco's modified Eagle medium (DMEM) supplemented with 10% fetal bovine serum (FBS) and 1% penicillin and streptomycin (VWR, Radnor, PA). HCT116 p53+/+ and p53−/− cells were a kind gift from Professor Bert Vogelstein at the Johns Hopkins University. For generating stable cell lines, MC38 cells were transfected with a mouse shTFRC plasmid (TRCN0000375695, Sigma, St. Louis, MO) or a mouse shPOLD1 plasmid (TRCN0000428858, Sigma), RKO cells were transfected with a human shPOLD1 plasmid (TRCN0000007924, Sigma) and selected with 1 μg/ml puromycin.\nCells and tumor tissues were lysed with radioimmunoprecipitation assay buffer. After incubation, cell extracts were centrifuged and the supernatant was collected for Bradford assay to quantify protein concentration by a BioTek Synergy HTX Multi-Mode Microplate Reader (BioTek, Winooski, VT). Equal amounts (20-50 μg) of protein were loaded for sodium dodecyl sulfate polyacrylamide gel electrophoresis (SDS-PAGE). The proteins inside the gels were transferred onto nitrocellulose membrane with a wet transfer method. The membranes were blocked with 3% milk for 1 hour. Primary antibodies were incubated overnight. Secondary antibodies were incubated for 1 hour. Antibodies for ferritin heavy chain (FTH1, #3998), IRP2 (#37135), active beta catenin (#8814), Anti-rabbit IgG HRP-linked Antibody (#7074) and Anti-mouse IgG HRP-linked Antibody (#7076) were from Cell signaling Technology (Danvers, MA). Primary antibodies for TFRC (sc-393719), HIF-1α, (sc-13515), HIF-2a (sc-13596), pS6 (sc-514033), pS6K (sc-8418), RRM2 (sc-398294), p-p53 (sc-377567), p53 (sc-6243), c-MYC (sc-40), GAPDH (sc-47724), Cyclin D1 (sc-718) and Actin (sc-8432) were from Santa Cruz Biotechnology (Dallas, TX). p-RPA2 (PA5-39809) was from Invitrogen (Carlsbad, CA). POLD1 (15646-1-AP), p-CHK1 (28805-1-AP), E2F1 (66515-1-Ig), Axin2 (20540-1-AP) and TNKS (18030-1-AP) were from Proteintech (Rosemont, IL)."}, "MC38 cells [2]": {"tested_on": "MC38 cells", "experiment": "MTT assay in MC38 cells", "assay_type": "cell-based, murine", "settings": "MC38, 10 μM DFX and/or 10 μM 5-FU, 48 hours, FIG. 7P", "procedure": "as §1\n(§2) Cells were plated at a concentration of 5×10^4 cells/mL in a 24 well plates. 125 μL 5 mg/mL MTT (Sigma, MO) was added to each plate and incubated for 30 min. Dimethyl sulfoxide (DMSO) was added and absorbance was measured at 570 nm using a BioTek Synergy HTX Multi-Mode Microplate Reader."}, "MC38 cells [3]": {"tested_on": "MC38 cells", "experiment": "Immunoblotting analysis in MC38 cells", "assay_type": "cell-based, murine", "settings": "MC38, 10 μM DFX and/or 10 μM 5-FU, 48 hours, FIG. 7Q", "procedure": "as §1\nCells and tumor tissues were lysed with radioimmunoprecipitation assay buffer. After incubation, cell extracts were centrifuged and the supernatant was collected for Bradford assay to quantify protein concentration by a BioTek Synergy HTX Multi-Mode Microplate Reader (BioTek, Winooski, VT). Equal amounts (20-50 μg) of protein were loaded for sodium dodecyl sulfate polyacrylamide gel electrophoresis (SDS-PAGE). The proteins inside the gels were transferred onto nitrocellulose membrane with a wet transfer method. The membranes were blocked with 3% milk for 1 hour. Primary antibodies were incubated overnight. Secondary antibodies were incubated for 1 hour. […]"}, "[4]": {"tested_on": "xenografts from MC38 cells", "experiment": "Subcutaneous MC38 xenograft combination therapy in C57BL/6 mice", "assay_type": "in vivo", "settings": "20 mg/kg DFX every other day, 1 mg/kg 5-FU daily, or combination, FIG. 7R", "protocol": "For subcutaneous xenograft study, 1×10^6 syngeneic MC38 cells with Tfrc or Pold1 knockdown were injected into the flanks of C57BL/6 mice. Two weeks later, mice were sacrificed and tumors were collected. For combination therapy, when tumors are palpable at one week after subcutaneous injection of MC38 cells, C57BL/6 mice were treated with vehicle, 20 mg/kg DFX for every other day, 1 mg/kg 5-fluorouracil (5-FU) daily, or the combination of DFX and 5-FU."}, "B-family DNA polymerases": {"tested_on": "B-family DNA polymerases", "settings": "aphidicolin combined with CHK1 inhibitors; cited from earlier work"}, "[5]": {"settings": "humans; cited from earlier work"}, "MC38 cells [6]": {"tested_on": "MC38 cells", "experiment": "Ferro-Orange staining of cellular ferrous iron", "assay_type": "cell-based, murine", "settings": "FIG. S6D", "procedure": "Cells (2×10^5 cells/well) were plated into 24 well plates. After seeding, pre-warmed DMEM containing 0.5 μM ferroOrange (dojindo, Rockville, MD), was incubated at 37° C. for 30 min. After incubation, the cell images were taken. Representative images were taken using the RFP channel of an Invitrogen™ EVOS™ FL Auto Imaging System (Thermo Fisher Scientific, Waltham, MA). Fluorescence intensity was quantified using a SpectraMax M2 Microplate Reader (Molecular Devices, Radnor, PA) at excitation 543 nm and emission 580 nm. The intensity was normalized with protein concentrations."}, "SW480 cells": {"tested_on": "SW480 cells", "experiment": "MTT assay in SW480 cells", "assay_type": "cell-based, human", "settings": "48 hours", "procedure": "as §1, §2"}, "[7]": {"tested_on": "advanced hepatocellular carcinoma", "settings": "cohort of 10 advanced hepatocellular carcinoma; cited from earlier work"}, "[8]": {"settings": "mice; cited from earlier work"}, "[9]": {"settings": "cited from earlier work"}, "[10]": {"tested_on": "patient-derived tumor colonoids", "experiment": "RNA-seq analysis of patient-derived tumor colonoids treated with DFO", "assay_type": "cell-based, human", "settings": "DFO 100 μM in KGMG medium, 4 days", "procedure": "The adenoma colonoids culture was described previously. See Xue, et al., Cell Metab, 2016; 24: pp. 447-461). The culture plates were placed in a 37° C. incubator for 30 min to solidify the Matrigel, followed by the addition of 1 mL serum-free Keratinocyte Growth Media Gold (KGMG, Catalogue: 00195769, Lonza, Basel, Switzerland). After 24 hours of plating, colonoids were treated with DFO (0 or 100 μM) in KGMG for 4 days with fresh media change every other day. At the end of the experiment, culture media was aspirated off, and colonoids were lysed with Trizol to extract RNA.\nRNA sequencing libraries were prepared using the TruSeq RNA library prep kit v2 (Illumina) following the manufacturer's recommended protocol. The libraries were sequenced using single-end 50-cycle reads on a HiSeq 4000 sequencer (Illumina) at the University of Michigan DNA Sequencing Core Facility. Raw sequencing read quality was assessed utilizing FastQC. Reads were aligned to the reference human transcriptome (UCSC) using STAR 2.5.2a. Default parameters were used for the alignment, with the exception of “--outFilterMultimapNmax 10” and “--sjdbScore 2”. Expression quantification and differential expression analysis between DFO and control tumor colonoids were conducted using CuffDiff v 2.1.1 using default settings. […]"}, "cancer cells": {"tested_on": "cancer cells", "settings": "cited from earlier work"}},
  "note": "Where two headings read alike, the source gives them in different places.",
  "data": [
    {"compound": "Oc1nc(-c2ccc(C(F)(F)F)cc2)nc2c1CSCC2", "note": "[XAV939]", "values": [
      {"measurement": "suppressive effect of DFO on c-Myc, E2F1, POLD1 and Cyclin D1", "setting": "[1]; SW480 cells, DFO and/or XAV939, FIG. 5N", "result": "potentiated"},
      {"measurement": "expression of TNKS and Axin2", "setting": "[1]; SW480 cells, FIG. 5N", "result": "increased"},
      {"measurement": "iron-repressed Axin2", "setting": "[1]; SW480 cells, FS and/or XAV939, FIG. 5O", "result": "rescued"},
      {"measurement": "c-Myc, E2F1, POLD1 and Cyclin D1 protein", "setting": "[1]; SW480 cells, even with iron supplementation, FIG. 5O", "result": "suppressed"}
    ]},
    {"compound": "O=c1[nH]cc(F)c(=O)[nH]1", "note": "[5-FU, 5-fluorouracil]", "values": [
      {"measurement": "growth suppressive effect of DFX in vitro (MTT)", "setting": "MC38 cells [2]", "result": "potentiated"},
      {"measurement": "DDR of DFX (immunoblotting)", "setting": "MC38 cells [3]", "result": "potentiated"},
      {"measurement": "growth suppressive effect of DFX in vivo (tumor weight)", "setting": "[4]", "result": "potentiated"}
    ]},
    {"compound": "C[C@@]1(CO)[C@H](O)CC[C@@]2(C)[C@H]1CC[C@H]1C[C@@H]3C[C@@]12CC[C@]3(O)CO", "note": "[aphidicolin]", "values": [
      {"measurement": "cancer cell proliferation", "setting": "B-family DNA polymerases", "result": "synergistic inhibition"},
      {"measurement": "toxicity", "setting": "[5]", "result": "too toxic to be used in humans"}
    ]},
    {"compound": "ferrous sulfate [FS]", "values": [
      {"measurement": "orange fluorescence signal (cellular ferrous iron)", "setting": "MC38 cells [6]", "result": "greatly increased"},
      {"measurement": "rescue of DFO-decreased POLD1", "setting": "[1]; HCT116 cells, 100 μM DFO and different doses of FS, FIG. 5E", "result": "can rescue"}
    ]},
    {"compound": "CNCc1ccc(-c2cc(-c3nc(-c4ccc(S(=O)(=O)C(C)C)cc4)cnc3N)on2)cc1", "note": "[VE-822]", "values": [
      {"measurement": "synergistic effect on cell growth (MTT)", "setting": "SW480 cells; SW480 and MC38 cells, 10 μM DFX, 10 uM VE-822 or 100 nM Prexasertib, FIG. S7G, S7H", "result": "synergistic effect was further validated"}
    ]},
    {"compound": "CC(=O)N(O)CCCCCNC(=O)CCC(=O)N(O)CCCCCNC(=O)CCC(=O)N(O)CCCCCN", "note": "[DFO, deferoxamine]", "values": [
      {"measurement": "severe adverse events", "setting": "[7]", "result": "without severe adverse events"},
      {"measurement": "circulation half-life", "setting": "[8]", "result": "~5", "unit": "min"},
      {"measurement": "circulation half-life", "setting": "[9]; humans", "result": "approximately 20 min"},
      {"measurement": "circulation half-life", "setting": "[9]; in vivo", "result": "extremely short"},
      {"measurement": "decrease of POLD1 gene expression (RNA-seq)", "setting": "[10]", "result": 4.31, "unit": "fold"},
      {"measurement": "decrease of RRM2 gene expression (RNA-seq)", "setting": "[10]", "result": 3.28, "unit": "fold"}
    ]},
    {"compound": "c1ccc(CNC2CC(NCc3ccccn3)CC(NCc3ccccn3)C2)nc1", "note": "(stereo not drawn) [tachpyridine, N,N′,N″-tris(2-pyridylmethyl)-cis,cis-1,3,5-triaminocyclohexane]", "values": [
      {"measurement": "sensitivity to ionizing radiation induced DNA damage", "setting": "cancer cells; cancer cells (not noncancer cells)", "result": "sensitizes cancer cells"},
      {"measurement": "cell cycle", "setting": "cancer cells; via ATR-dependent activation of CHK1", "result": "induces G2 cell cycle arrest"}
    ]},
    {"compound": "COc1cccc(OCCCN)c1-c1cc(Nc2cnc(C#N)cn2)n[nH]1", "note": "[Prexasertib]", "values": [
      {"measurement": "synergistic effect on cell growth (MTT)", "setting": "SW480 cells; SW480, 10 μM DFO and/or 100 nM Prexasertib, FIG. S7F", "result": "synergistic effect was further validated"}
    ]},
    {"compound": "CCc1ccc(/C=C2/SC(=S)NC2=O)cc1", "note": "[10058-F4]", "values": [
      {"measurement": "E2F1 and POLD1 protein", "setting": "[1]; SW480 cells, c-Myc inhibitor overnight, FIG. S5G", "result": "reduced"}
    ]}
  ]
}
